Results on eleven compounds are retold here after US5486595A, “Tumor necrosis factor inhibitors” (Centecor, Inc., priority 1994, dated 1996).

One may read the inhibition as the relative decrease from the control value, in per cent.

Where a SMILES comes first, the peptide text is derived from it.

This experiment deals with T1, human TNFα (Homo sapiens, UniProt P01375).
T1 construct: purchased Biosource, Camarillo, Calif
In words: p55 Receptor/IgG Fusion Protein Binding Assay (inhibition of TNFα capture by p55-Ig coated plate). The conditions noted are these: for inhibition at 1000 µM: peptide 1 mM, TNFα 25 ng/ml, read-out: inhibition of binding of TNFα to p55TNFr-IgG chimeric construct. The method, then:
This assay was designed to identify peptides which bind to human TNFα and thereby prevent the capture of the TNFα by a microtiter plate coated with p55-Ig fusion protein. A constant concentration of human TNFα is preincubated with the test peptide and then incubated on the p55-Ig coated microtiter wells. Bound TNFα is detected using a specific antisera and an alkaline phosphatase-conjugated probe.
A 96-well, U-bottom polyvinylchloride microtiter plate was coated with 50 μl/well of p55-Ig fusion protein at 5 μg/ml in 0.01M sodium phosphate, 0.15M sodium chloride (PBS) by incubation overnight at 4° C. or 2 hours at 37° C. The fusion protein, which consists of a p55 TNF receptor protein portion and an IgG portion, can be produced as disclosed in U.S. application Ser. No. 08/010,406 filed Jan. 29, 1993 which is incorporated herein by reference. The plate was washed three times with 0.05% Tween-20 in PBS, then blocked, by adding 150 μl/well of assay buffer (10 mM N-2-hydroxyethylpiperazine-N'-[…] (HEPES) pH 7.2, containing 0.1% porcine gelatin, 0.1% Tween-80, and 0.01% sodium azide) and continuing incubation for 1 hour at 37° C. or at 4° C. for 1-7 days.
Lyophilized peptides to be tested were weighed in tared 12×75 mm polystyrene tubes and reconstituted to a concentration of 1.2 mM with assay buffer. Each suspension was sonicated in a water bath for 1-5 minutes and vortexed 15-30 seconds to disperse large particles. Serial dilutions of each peptide suspension were prepared using assay buffer in a 96-well polystyrene microtiter plate. Additional wells received Fab fragment of the mouse/human monoclonal anti-human TNFα antibody cA2 (positive control) or assay buffer (negative control). […] The polystyrene dilution plate was then sealed and incubated 1 hour at room temperature on an orbital mixer set at moderate speed.
Following the sample preincubation, blocker was discarded from the p55-Ig coated plate and blotted dry. Aliquots (50 μl) of each peptide or control were transferred into duplicate wells on the p55-Ig coated plate which was then sealed and incubated i hour at 37° C. Duplicate wells containing only assay buffer were included as a plate blank. After incubation the p55-Ig plate was washed three times with 0.05% Tween-20 in PBS.
To detect TNFα captured by the p55-Ig plate, all wells were incubated in succession with polyclonal rabbit anti-human TNFα (Genzyme, Boston, Mass.; 1:500 in assay buffer, 50 μl/well), biotinylated goat anti-rabbit Ig (H&L) (Vector Laboratories, Burlingame, Calif.; 1 μg/ml in assay buffer, 50 μl/well) and streptavidin-alkaline phosphatase conjugate (Pierce, Rockford, Ill.; 1 μg/ml in assay buffer, 50 μl/well). All incubations were for 1 hour at 37° C. and after each incubation the plate was washed three times with 0.05% Tween-20 in PBS. Fifty microliters of alkaline phosphatase substrate solution (alkaline buffer (Sigma, St. Louis, Mo.) diluted 1:500 in deionized water plus one 5 mg tablet of p-nitrophenyl phosphate (Sigma, St. Louis, Mo.) per 5 ml of diluted buffer) was added to all wells and incubation continued for 20 minutes at room temperature. Color development was stopped by adding to all wells 50 μl of 3N sodium hydroxide. The optical density (OD) at 405 nm was measured on a microtiter plate reader (Molecular Devices Vmax plate reader), with the plate blank wells subtracted as background. The activity of each peptide was then expressed as the percent inhibition of TNFα capture by the p55-Ig plate, relative to the amount of TNFα captured in wells containing only assay buffer (negative control), as follows: % inhibition=100-((mean OD peptide/mean OD negative control)×100).
The inhibition of binding of TNFα to p55TNFr-IgG chimeric construct was performed as described above using several embodiments of the invention. The peptides were tested at a concentration of 1 mM.

T1 sequence (P01375 77-233 limits assumed): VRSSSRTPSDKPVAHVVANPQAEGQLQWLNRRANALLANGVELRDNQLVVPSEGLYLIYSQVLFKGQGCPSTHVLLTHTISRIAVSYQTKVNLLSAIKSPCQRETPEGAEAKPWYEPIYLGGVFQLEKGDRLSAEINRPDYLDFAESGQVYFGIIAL

On to `CC(C)C[C@H](N)C(=O)N[C@@H](Cc1ccc(O)cc1)C(=O)N[C@@H](CC(N)=O)C(=O)N[C@@H](CC(=O)O)C(=O)N[C@@H](C)C(=O)N1CCC[C@H]1C(=O)NCC(=O)N1CCC[C@H]1C(=O)NCC(=O)N[C@@H](CCC(N)=O)C(=O)N[C@@H](CC(=O)O)C(=O)N[C@H](C(=O)N[C@@H](CC(=O)O)C(=O)N[C@@H](C)C(=O)N[C@@H](CCCNC(=N)N)C(N)=O)[C@@H](C)O` [SEQ ID NO:1, Leucyl-tyrosyl-asparaginyl-aspartyl-alanyl-prolyl-glycyl-prolyl-glycyl-glutaminyl-aspartyl-threonyl-aspartyl-alanyl-arginine Amide] (H-LYNDAPGPGQDTDAR-NH2), for which the inhibition at 1000 µM came to 46%.

In the case of `C[C@H](NC(=O)[C@H](CCC(=O)O)NC(=O)[C@H](CCCNC(=N)N)NC(=O)[C@H](C)NC(=O)[C@H](CC(=O)O)NC(=O)[C@@H](NC(=O)[C@H](CC(=O)O)NC(=O)[C@H](CCC(N)=O)NC(=O)CNC(=O)[C@@H]1CCCN1C(=O)CNC(=O)[C@@H]1CCCN1C(=O)[C@H](C)NC(=O)[C@@H](N)CC(=O)O)[C@@H](C)O)C(=O)N[C@@H](CCC(=O)O)C(N)=O` [SEQ ID NO:2] (H-DAPGPGQDTDAREAE-NH2), the inhibition at 1000 µM was found to be 62%.

With `C[C@H](NC(=O)[C@H](CCC(=O)O)NC(=O)[C@H](CCCNC(=N)N)NC(=O)[C@H](C)NC(=O)[C@H](CC(=O)O)NC(=O)[C@@H](NC(=O)[C@H](CC(=O)O)NC(=O)[C@H](CCC(N)=O)NC(=O)CNC(=O)[C@@H]1CCCN1C(=O)CN)[C@@H](C)O)C(=O)N[C@@H](CCC(=O)O)C(=O)N[C@@H](CO)C(=O)NCC(=O)N[C@@H](CO)C(N)=O` [SEQ ID NO:3, Glycyl-prolyl-glycyl-glutaminyl-aspartyl-threonyl-aspartyl-alanyl-arginyl-glutamyl-alanyl-glutamyl-seryl-glycyl-serine Amide] (H-GPGQDTDAREAESGS-NH2), the inhibition at 1000 µM was found to be 53%.

`C[C@H](NC(=O)[C@@H](NC(=O)[C@H](Cc1ccccc1)NC(=O)[C@H](CO)NC(=O)CNC(=O)[C@H](CO)NC(=O)[C@H](CCC(=O)O)NC(=O)[C@H](C)NC(=O)[C@H](CCC(=O)O)NC(=O)[C@H](CCCNC(=N)N)NC(=O)[C@H](C)NC(=O)[C@H](CC(=O)O)NC(=O)[C@@H](NC(=O)[C@H](CC(=O)O)NC(=O)[C@@H](N)CCC(N)=O)[C@@H](C)O)[C@@H](C)O)C(N)=O` [SEQ ID NO:4, Glutaminyl-aspartyl-threonyl-aspartyl-alanyl-arginyl-glutamyl-alanyl-glutamyl-seryl-glycyl-seryl-phenylalanyl-threonyl-alanine Amide] (H-QDTDAREAESGSFTA-NH2): the inhibition at 1000 µM worked out at 53%.

On to `C[C@H](NC(=O)[C@H](CCC(=O)O)NC(=O)[C@H](CCCNC(=N)N)NC(=O)[C@H](C)NC(=O)[C@@H](N)CC(=O)O)C(=O)N[C@@H](CCC(=O)O)C(=O)N[C@@H](CO)C(=O)NCC(=O)N[C@@H](CO)C(=O)N[C@@H](Cc1ccccc1)C(=O)N[C@H](C(=O)N[C@@H](C)C(=O)N[C@@H](CO)C(=O)N[C@@H](CCC(=O)O)C(=O)N[C@@H](CC(N)=O)C(N)=O)[C@@H](C)O` [SEQ ID NO:5] (H-DAREAESGSFTASEN-NH2), for which the inhibition at 1000 µM worked out at 58%.

For `CC(C)C[C@H](NC(=O)[C@H](Cc1c[nH]cn1)NC(=O)[C@H](CC(N)=O)NC(=O)[C@H](CCC(=O)O)NC(=O)[C@H](CO)NC(=O)[C@H](C)NC(=O)[C@@H](NC(=O)[C@H](Cc1ccccc1)NC(=O)[C@H](CO)NC(=O)CNC(=O)[C@H](CO)NC(=O)[C@H](CCC(=O)O)NC(=O)[C@H](C)NC(=O)[C@@H](N)CCC(=O)O)[C@@H](C)O)C(=O)N[C@@H](CCCNC(=N)N)C(N)=O` [SEQ ID NO:6, Glutamyl-alanyl-glutamyl-seryl-glycyl-seryl-phenylalanyl-threonyl-alanyl-seryl-glutamyl-asparaginyl-histidyl-leucyl-arginine Amide] (H-EAESGSFTASENHLR-NH2), the inhibition at 1000 µM is 53%.

For the compound `CC[C@H](C)[C@H](NC(=O)[C@H](CCC(=O)O)NC(=O)[C@@H](NC(=O)[C@H](CCC(N)=O)NC(=O)CNC(=O)[C@H](CCSC)NC(=O)[C@H](CCC(=O)O)NC(=O)[C@@H](N)CCCCN)C(C)C)C(=O)N[C@@H](CO)C(=O)N[C@@H](CO)C(=O)N[C@@H](C)C(=O)N[C@H](C(=O)N[C@H](C(=O)N[C@@H](CC(=O)O)C(=O)N[C@@H](CCCNC(=N)N)C(N)=O)C(C)C)[C@@H](C)O` [SEQ ID NO:7], the inhibition at 1000 µM is 42%.

Turning to `CC[C@H](C)[C@H](NC(=O)[C@H](CCC(=O)O)NC(=O)[C@@H](NC(=O)[C@H](CCC(N)=O)NC(=O)CN)C(C)C)C(=O)N[C@@H](CO)C(=O)N[C@@H](CO)C(=O)N[C@@H](C)C(=O)N[C@H](C(=O)N[C@H](C(=O)N[C@@H](CC(=O)O)C(=O)N[C@@H](CCCNC(=N)N)C(=O)N[C@@H](CC(=O)O)C(=O)N[C@H](C(=O)N[C@H](C(N)=O)C(C)C)[C@@H](C)O)C(C)C)[C@@H](C)O` [SEQ ID NO:8] (H-GQVEISSATVDRDTV-NH2), the inhibition at 1000 µM stood at 56%.

As to `CC(C)[C@H](NC(=O)[C@@H](NC(=O)[C@@H](N)CC(=O)O)[C@@H](C)O)C(=O)N[C@@H](C)C(=O)NCC(=O)N[C@@H](C)C(=O)N[C@@H](CCCNC(=N)N)C(=O)N[C@@H](CCCCN)C(=O)N[C@@H](CC(N)=O)C(=O)N[C@@H](CCC(N)=O)C(=O)N[C@@H](Cc1ccc(O)cc1)C(=O)N[C@@H](CCCNC(=N)N)C(=O)N[C@@H](Cc1c[nH]cn1)C(=O)N[C@@H](Cc1ccc(O)cc1)C(=O)N[C@@H](Cc1c[nH]c2ccccc12)C(N)=O` [SEQ ID NO:9, Aspartyl-threonyl-valyl-alanyl-glycyl-alanyl-arginyl-lysyl-asparaginyl-glutaminyl-tyrosyl-arginyl-histidyl-tyrosyl-tryptophan Amide] (H-DTVAGARKNQYRHYW-NH2), the inhibition at 1000 µM was 30%.

In the case of `CC(C)C[C@H](NC(=O)[C@H](CC(N)=O)NC(=O)[C@H](CCC(=O)O)NC(=O)[C@H](CO)NC(=O)[C@H](Cc1c[nH]c2ccccc12)NC(=O)[C@H](Cc1ccc(O)cc1)NC(=O)[C@H](Cc1c[nH]cn1)NC(=O)[C@H](CCCNC(=N)N)NC(=O)[C@H](Cc1ccc(O)cc1)NC(=O)[C@H](CCC(N)=O)NC(=O)[C@H](CC(N)=O)NC(=O)[C@H](CCCCN)NC(=O)[C@@H](N)CCCNC(=N)N)C(=O)N[C@@H](Cc1ccccc1)C(=O)N[C@@H](CCC(N)=O)C(N)=O` [SEQ ID NO:10], the inhibition at 1000 µM came out at 49%.

Regarding `CC(=O)N[C@@H](CCC(N)=O)C(=O)N[C@@H](Cc1ccc(O)cc1)C(=O)N[C@@H](CCCNC(=N)N)C(=O)N[C@@H](Cc1c[nH]cn1)C(=O)N[C@@H](Cc1ccc(O)cc1)C(=O)N[C@@H](Cc1c[nH]c2ccccc12)C(=O)N[C@@H](CO)C(=O)N[C@@H](CCC(=O)O)C(=O)N[C@@H](CC(N)=O)C(=O)N[C@@H](CC(C)C)C(=O)N[C@@H](Cc1ccccc1)C(=O)N[C@@H](CCC(N)=O)C(=O)N[C@@H](C)C(=O)N[C@@H](Cc1ccccc1)C(=O)N[C@@H](CC(N)=O)C(N)=O` [SEQ ID NO:11, Acetyl-glutaminyl-tyrosyl-arginyl-histidyl-tyrosyl-tryptophyl-seryl-glutamyl-asparaginyl-leucyl-phenylalanyl-glutaminyl-alanyl-phenylalanyl-asparagineAmide], the inhibition at 1000 µM turned out to be 27%. In addition, for the setting “various concentrations of peptide”, the “dose dependent inhibition of TNFα (FIG. 1)” value is listed as “dose dependent inhibition”.
